biological target: T1, Full-length, GST-tagged, human CaMKIIδ (Homo sapiens, UniProt Q13557); experiment: CaMKIIδ binding assay (TR-FRET with BODIPY-labeled probe ligand); settings: CaMKIIδ binding assay; activity class per Table 2
T1 construct: Full-Length, Glutathione-S-Transferase(GST)-Tagged, Human CaMKIIδ was purchased from Carna Biosciences; purchased Carna Biosciences 02-111
Summary of the method: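 Compounds were tested as 4-fold, eight-point series for 1 hr at room temperature, and IC50 was obtained by logistic fitting against a 3 μM parent-compound control. Signal came from displacement of a 300 nM BODIPY ligand from 0.5 nM GST-CaMKIIδ, detected via Tb-anti-GST in calmodulin/Ca2+ (pH 7.6).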

T1 sequence (Q13557 1-478 isoform Q13557-12): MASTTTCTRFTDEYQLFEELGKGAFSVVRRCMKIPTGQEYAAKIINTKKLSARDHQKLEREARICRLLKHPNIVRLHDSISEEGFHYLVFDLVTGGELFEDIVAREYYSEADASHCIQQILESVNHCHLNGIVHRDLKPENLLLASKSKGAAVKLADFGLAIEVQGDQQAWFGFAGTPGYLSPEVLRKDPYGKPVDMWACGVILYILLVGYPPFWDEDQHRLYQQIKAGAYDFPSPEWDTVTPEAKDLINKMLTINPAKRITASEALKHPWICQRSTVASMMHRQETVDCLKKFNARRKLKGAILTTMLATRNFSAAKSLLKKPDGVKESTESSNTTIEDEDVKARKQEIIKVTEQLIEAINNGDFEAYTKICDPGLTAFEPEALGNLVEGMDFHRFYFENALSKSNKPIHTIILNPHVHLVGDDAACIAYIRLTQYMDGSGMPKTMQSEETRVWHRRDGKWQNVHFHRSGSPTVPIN

`CCn1ncc(Nc2ncc(-c3ccc(Cl)c(O[C@@H](C)Cn4cnnn4)c3)cn2)c1C(=O)N1CCC(N2CCOCC2)CC1` [Example 880, (S)-(4-((5-(3-((1-(1H-tetrazol-1-yl)propan-2-yl)oxy)-4-chlorophenyl)pyrimidin-2-yl)amino)-1-ethyl-1H-pyrazol-5-yl) (4-morpholinopiperidin-1-yl)methanone] and `C[C@H](Cn1cnnn1)Oc1cc(-c2cnc(Nc3cn([C@H]4CC[C@H](N5CCOCC5)CC4)nc3C(F)(F)F)nc2)ccc1Cl` [Example 893, 5-(3-(((R)-1-(1H-tetrazol-1-yl)propan-2-yl)oxy)-4-chlorophenyl)-N-(1-(trans-4-morpholinocyclohexyl)-3-(trifluoromethyl)-1H-pyrazol-4-yl)pyrimidin-2-amine] cannot be ordered by IC50: at least 100 nM for the first, 10 to 100 nM for the second.

First: C[C@@H](COC(F)F)Oc1cc(-c2cnc(Nc3cn(C4CC5(C4)CN(C4CCOCC4)C5)nc3OCC(F)(F)F)nc2)ccc1C#N [Example 881, (S)-2-((1-(difluoromethoxy)propan-2-yl)oxy)-4-(2-((1-(2-(tetrahydro-2H-pyran-4-yl)-2-azaspiro[3.3]heptan-6-yl)-3-(2,2,2-trifluoroethoxy)-1H-pyrazol-4-yl)amino)pyrimidin-5-yl)benzonitrile]
Second: C[C@H](Cn1cnnn1)Oc1cc(-c2cnc(Nc3cn([C@H]4CC[C@@H](N5CCOCC5)CC4)nc3C(F)(F)F)nc2)ccc1Cl [Example 896, 5-(3-(((R)-1-(1H-tetrazol-1-yl)propan-2-yl)oxy)-4-chlorophenyl)-N-(1-(cis-4-morpholinocyclohexyl)-3-(trifluoromethyl)-1H-pyrazol-4-yl)pyrimidin-2-amine]
The IC50 of the first is lower: under 10 nM for the first, at least 100 nM for the second. The first is the more potent here.

`C[C@@H](Cn1cnnn1)Oc1cc(-c2cnc(Nc3cn(CC4(O)CCNCC4)nc3C(F)(F)F)nc2)ccc1Cl` [Example 882, (S)-4-((4-((5-(3-((1-(1H-tetrazol-1-yl)propan-2-yl)oxy)-4-chlorophenyl)pyrimidin-2-yl)amino)-3-(trifluoromethyl)-1H-pyrazol-1-yl)methyl)piperidin-4-ol] and `C[C@@H](Cn1cnnn1)Oc1cc(-c2cnc(Nc3cn(CC4(O)CCN(C)CC4)nc3C(F)(F)F)nc2)ccc1Cl` [Example 891, (S)-4-((4-((5-(3-((1-(1H-tetrazol-1-yl)propan-2-yl)oxy)-4-chlorophenyl)pyrimidin-2-yl)amino)-3-(trifluoromethyl)-1H-pyrazol-1-yl)methyl)-1-methylpiperidin-4-ol] cannot be ordered by IC50: under 10 nM for the first, under 10 nM for the second.

First: C[C@@H](Cn1cnnn1)Oc1cc(-c2cnc(Nc3cn(C(C)(C)CO)nc3OCC(F)(F)F)nc2)ccc1Cl [Example 883, (S)-2-(4-((5-(3-((1-(1H-tetrazol-1-yl)propan-2-yl)oxy)-4-chlorophenyl)pyrimidin-2-yl)amino)-3-(2,2,2-trifluoroethoxy)-1H-pyrazol-1-yl)-2-methylpropan-1-ol]
Second: C[C@@H](Cn1cnnn1)Oc1cc(-c2cnc(Nc3cn(C(C)(C)C(=O)O)nc3OCC(F)(F)F)nc2)ccc1Cl [Example 889, (S)-2-(4-((5-(3-((1-(1H-tetrazol-1-yl)propan-2-yl)oxy)-4-chlorophenyl)pyrimidin-2-yl)amino)-3-(2,2,2-trifluoroethoxy)-1H-pyrazol-1-yl)-2-methylpropanoic acid]
The IC50 of the first is lower: under 10 nM for the first, 10 to 100 nM for the second.

`C[C@@H](Cn1cnnn1)Oc1cc(-c2cnc(Nc3cn(CCNS(C)(=O)=O)nc3C(F)(F)F)nc2)ccc1Cl` [Example 884, (S)-N-(2-(4-((5-(3-((1-(1H-tetrazol-1-yl)propan-2-yl)oxy)-4-chlorophenyl)pyrimidin-2-yl)amino)-3-(trifluoromethyl)-1H-pyrazol-1-yl)ethyl)methanesulfonamide] and `C[C@@H](Cn1cnnn1)Oc1cc(-c2cnc(Nc3cn(CCNC(N)=O)nc3C(F)(F)F)nc2)ccc1Cl` [Example 887, (S)-1-(2-(4-((5-(3-((1-(1H-tetrazol-1-yl)propan-2-yl)oxy)-4-chlorophenyl)pyrimidin-2-yl)amino)-3-(trifluoromethyl)-1H-pyrazol-1-yl)ethyl)urea] fall in the same range of IC50: 10 to 100 nM for the first, 10 to 100 nM for the second.

`CCOC(=O)C(C)(C)n1cc(Nc2ncc(-c3ccc(Cl)c(O[C@@H](C)Cn4cnnn4)c3)cn2)c(OCC(F)(F)F)n1` [Example 885, ethyl (S)-2-(4-((5-(3-((1-(1H-tetrazol-1-yl)propan-2-yl)oxy)-4-chlorophenyl)pyrimidin-2-yl)amino)-3-(2,2,2-trifluoroethoxy)-1H-pyrazol-1-yl)-2-methylpropanoate] and `C[C@@H](Cn1cnnn1)Oc1cc(-c2cnc(Nc3cn(C(C)(C)C(N)=O)nc3OCC(F)(F)F)nc2)ccc1Cl` [Example 894, (S)-2-(4-((5-(3-((1-(1H-tetrazol-1-yl)propan-2-yl)oxy)-4-chlorophenyl)pyrimidin-2-yl)amino)-3-(2,2,2-trifluoroethoxy)-1H-pyrazol-1-yl)-2-methylpropanamide] cannot be ordered by IC50: under 10 nM for the first, under 10 nM for the second.

`C[C@@H](Cn1cnnn1)Oc1cc(-c2cnc(Nc3cn(CC4(O)CCOCC4)nc3OCC(F)(F)F)nc2)ccc1Cl` [Example 886, (S)-4-((4-((5-(3-((1-(1H-tetrazol-1-yl)propan-2-yl)oxy)-4-chlorophenyl)pyrimidin-2-yl)amino)-3-(2,2,2-trifluoroethoxy)-1H-pyrazol-1-yl)methyl)tetrahydro-2H-pyran-4-ol] and `C[C@@H](Cn1cnnn1)Oc1cc(-c2cnc(Nc3cn(CC4(O)CCC5(CC4)OCCO5)nc3OCC(F)(F)F)nc2)ccc1Cl` [Example 899, (S)-8-((4-((5-(3-((1-(1H-tetrazol-1-yl)propan-2-yl)oxy)-4-chlorophenyl)pyrimidin-2-yl)amino)-3-(2,2,2-trifluoroethoxy)-1H-pyrazol-1-yl)methyl)-1,4-dioxaspiro[4.5]decan-8-ol] cannot be ordered by IC50: under 10 nM for the first, under 10 nM for the second.

Compared with `C[C@@H](Cn1cnnn1)Oc1cc(-c2cnc(Nc3cn(CC4(O)CCN(C(N)=O)CC4)nc3C(F)(F)F)nc2)ccc1Cl` [Example 888, (S)-4-((4-((5-(3-((1-(1H-tetrazol-1-yl)propan-2-yl)oxy)-4-chlorophenyl)pyrimidin-2-yl)amino)-3-(trifluoromethyl)-1H-pyrazol-1-yl)methyl)-4-hydroxypiperidine-1-carboxamide], `C[C@@H](Cn1cnnn1)Oc1cc(-c2cnc(Nc3cn(-c4cn[nH]c4)nc3C(F)(F)F)nc2)ccc1Cl` [Example 890, (S)-N-(5-(3-((1-(1H-tetrazol-1-yl)propan-2-yl)oxy)-4-chlorophenyl)pyrimidin-2-yl)-3-(trifluoromethyl)-1′H-[1,4′-bipyrazol]-4-amine] is higher in IC50: under 10 nM for the first, 10 to 100 nM for the second. The first is the more potent here.

Work on `C[C@@H](Cn1cnnn1)Oc1cc(-c2cnc(Nc3cn(C(C)(C)C(=O)N4CCOCC4)nc3OCC(F)(F)F)nc2)ccc1Cl` [Example 895, (S)-2-(4-((5-(3-((1-(1H-tetrazol-1-yl)propan-2-yl)oxy)-4-chlorophenyl)pyrimidin-2-yl)amino)-3-(2,2,2-trifluoroethoxy)-1H-pyrazol-1-yl)-2-methyl-1-morpholinopropan-1-one] yielded an IC50 of 10 to 100 nM.

same assay, conditions: Table 2; CaMKIIδ binding assay, activity given as class A/B/C

First: CCOC(=O)c1c(Nc2ncc(-c3ccc(Cl)c(O[C@@H](C)Cn4cnnn4)c3)cn2)cnn1CC [Example 872, ethyl (S)-4-((5-(3-((1-(1H-tetrazol-1-yl)propan-2-yl)oxy)-4-chlorophenyl)pyrimidin-2-yl)amino)-1-ethyl-1H-pyrazole-5-carboxylate]
Second: CCn1ncc(Nc2ncc(-c3ccc(Cl)c(O[C@@H](C)Cn4cnnn4)c3)cn2)c1C(=O)O [Example 875, (S)-4-((5-(3-((1-(1H-tetrazol-1-yl)propan-2-yl)oxy)-4-chlorophenyl)pyrimidin-2-yl)amino)-1-ethyl-1H-pyrazole-5-carboxylic acid]
The IC50 of the first is lower: under 10 nM for the first, 10 to 100 nM for the second.

First: CCOC(=O)c1nn(CC)cc1Nc1ncc(-c2ccc(Cl)c(O[C@@H](C)Cn3cnnn3)c2)cn1 [Example 873, ethyl (S)-4-((5-(3-((1-(1H-tetrazol-1-yl)propan-2-yl)oxy)-4-chlorophenyl)pyrimidin-2-yl)amino)-1-ethyl-1H-pyrazole-3-carboxylate]
Second: CCn1cc(Nc2ncc(-c3ccc(Cl)c(O[C@@H](C)Cn4cnnn4)c3)cn2)c(C(=O)O)n1 [Example 876, (S)-4-((5-(3-((1-(1H-tetrazol-1-yl)propan-2-yl)oxy)-4-chlorophenyl)pyrimidin-2-yl)amino)-1-ethyl-1H-pyrazole-3-carboxylic acid]
The IC50 of the first is lower: under 10 nM for the first, 10 to 100 nM for the second.

Compared with `C[C@@H](Cn1cnnn1)Oc1cc(-c2cnc(Nc3cn(CC4(O)CCN(C(=O)OC(C)(C)C)CC4)nc3C(F)(F)F)nc2)ccc1Cl` [Example 874, tert-butyl (S)-4-((4-((5-(3-((1-(1H-tetrazol-1-yl)propan-2-yl)oxy)-4-chlorophenyl)pyrimidin-2-yl)amino)-3-(trifluoromethyl)-1H-pyrazol-1-yl)methyl)-4-hydroxypiperidine-1-carboxylate], `C[C@@H](Cn1cnnn1)Oc1cc(-c2cnc(Nc3cn(CCN)nc3C(F)(F)F)nc2)ccc1Cl` [Example 877, (S)-5-(3-((1-(1H-tetrazol-1-yl)propan-2-yl)oxy)-4-chlorophenyl)-N-(1-(2-aminoethyl)-3-(trifluoromethyl)-1H-pyrazol-4-yl)pyrimidin-2-amine] is lower in IC50: 10 to 100 nM for the first, under 10 nM for the second. The second is the more potent here.

`COc1cccc(-n2cc(Nc3ncc(-c4ccc(Cl)c(O[C@@H](C)Cn5cnnn5)c4)cn3)c(OCC(F)(F)F)n2)n1` [Example 878, (S)-5-(3-((1-(1H-tetrazol-1-yl)propan-2-yl)oxy)-4-chlorophenyl)-N-(1-(6-methoxypyridin-2-yl)-3-(2,2,2-trifluoroethoxy)-1H-pyrazol-4-yl)pyrimidin-2-amine] and `C[C@@H](Cn1cnnn1)Oc1cc(-c2cnc(Nc3cn(-c4cccc(=O)[nH]4)nc3OCC(F)(F)F)nc2)ccc1Cl` [Example 879, (S)-6-(4-((5-(3-((1-(1H-tetrazol-1-yl)propan-2-yl)oxy)-4-chlorophenyl)pyrimidin-2-yl)amino)-3-(2,2,2-trifluoroethoxy)-1H-pyrazol-1-yl)pyridin-2(1H)-one] cannot be ordered by IC50: at least 100 nM for the first, 10 to 100 nM for the second.
